Laboratory results as given in publication PMC7340670, “Phase I study of TAS-115, a novel oral multi-kinase inhibitor, in patients with advanced solid tumors” (Investigational New Drugs, 2019).

Key:
[1] = tested on: osteoclast differentiation; design: method as in data on file; conditions: in vitro; ref data on file; cited from earlier work
[2] = tested on: advanced solid tumors; experiment: Antitumor effect by RECIST Version 1.1; format: in vivo, human
Description: (§1) The secondary objectives were to investigate the PK profile, safety, tolerability, antitumor activity, and pharmacodynamic profile of TAS-115. AEs were graded according to the CTCAE Version 4.03. Response was assessed by radiologic imaging at 6 and 12 weeks from the first dose, and every 12 weeks thereafter. Antitumor effect was evaluated by investigators using Response Evaluation Criteria in Solid Tumors (RECIST) Version 1.1 [17]. If a patient had bone lesions, evaluation was performed using bone scintigraphy and bone scan index (BSI) were calculated by BONENAVI® software (FUJIFILM Toyama Chemical, Co., Ltd., Japan). BSI response was defined as ≥30% reduction in BSI [18]. An exploratory objective was to assess changes in protein levels of soluble MET (sMET), VEGF, and soluble VEGFR2 (sVEGFR2) in plasma, and HGF in serum as pharmacodynamic markers.

[3] = tested on: tumor growth and abnormal bone remodeling; design: method as in PMID 24140932, PMID 27539855, PMID 27736957; conditions: cited from earlier work
[4] = target: 192-panel kinase; design: method as in PMID 24140932; conditions: 192-panel kinase assay; read-out: IC50 for 53 (28%) kinases, including MET, AXL, c-kit, Src, PDGFR-alpha and –beta; cited from earlier work
[5] = tested on: bone lesions; experiment: Bone scintigraphy / bone scan index (BSI) response; format: in vivo, human
Description: as §1

[6] = tested on: soluble VEGFR2 (sVEGFR2); experiment: Pharmacodynamic marker: sVEGFR2 in plasma; format: in vivo, human
Description: as §1
For pharmacodynamic analyses, blood samples were collected on Days 1 and 22 (before dosing, each) in part 1, and Days 1 (pre-dosing) and 19 (pre- and post 6 h) in part 2 and the expansion part. […]
The planned sample size was up to 90 patients, and it was not based on the formal calculation because of experimental phase I trial. For pharmacodynamics parameters, P values were calculated using the paired t-test for measured values from merged doses. […]

[7] = tested on: patients; design: method as in data on file; conditions: tablet formulation, ref data on file, cited from earlier work

Q: For CNC(=O)c1cc2c(Oc3ccc(NC(=S)NC(=O)Cc4ccccc4)cc3F)ccnc2cc1OC [TAS-115], which “osteoclast differentiation induced by M-CSF and RANKL” value [1] is on record?
A: Its value is “dose-dependent inhibition”.

Q: What about the “antitumor effect in a patient with bladder cancer with metastases” value ([2]; 650 mg 5-on/2-off discontinued at week 7, after discontinuation without further antitumor treatment) of the same compound?
A: Its value is “the lung metastatic lesions disappeared”.

Q: And the “complete or partial response by RECIST evaluation” value ([2]; all parts)?
A: The value was “no patients who showed complete or partial response”.

Q: And the “minor tumor shrinkage of target lesions” value ([2]; patients determined as having progressive disease (PD))?
A: Its value is “four patients”.

Q: What about the “antitumor effect in mouse xenograft models” value [3] of the same compound?
A: Its value is “potent antitumor effect, inhibiting tumor growth and abnormal bone remodeling”.

Q: What about the IC50 [4] of the same compound?
A: The IC50 was < 1000 nM.

Q: What about the “antitumor effect in a patient with CRPC with multiple bone metastases” value ([5]; 650 mg 5-on/2-off) of the same compound?
A: Its value is “notable improvement was observed in the bone scan”.

Q: And the “antitumor effect in a patient with epithelioid sarcoma with multiple metastases” value ([5]; 650 mg 5-on/2-off, 6 weeks after the first administration)?
A: The value was “marked decrease of hot spots on bone scans and reduction in fluorodesoxyglucose uptake”.

Q: What about the “BSI response rate (≥30% reduction in BSI)” value ([5]; patients with bone lesions, 14 of 25) of the same compound?
A: Its value is 56.0%.

Q: What about the “change of VEGFR2” value ([6]; 6 h post-dose on Day 19 compared with pre-dose on Day 19, P = .0204) of the same compound?
A: The value was “decrease”.

Q: And the “marked alterations of sVEGFR2 from Day 1” value ([6]; in vivo)?
A: Its value is “not observed”.

Q: What about the absorption [7] of the same compound?
A: Its absorption is “saturated between 100 and 1200 mg”.

Q: What about the “dose-limiting toxicities (DLTs)” value ([7]; ten patients, 100, 200, 400, 800, 1200 mg SID and 400 mg BID) of the same compound?
A: Its value is “no dose-limiting toxicities (DLTs) were observed”.
